In brackets after ≈: the same amount, converted by molar mass. Like-named read-outs stand apart in the source and are kept apart here. Residues, ends and D or L forms follow the SMILES beside them.

The subject of assay [1] is M. tuberculosis. To be noted: Kinetic killing assay; ref [22]; cited from earlier work. The source says:
Table 6 The general characteristics and the previously reported MIC of each antimicrobial peptide used in this study. | column: MIC (µg/mL)

The test system of assay [2] is M. tuberculosis H37Rv. As to the kind of experiment: Checkerboard assay (REMA read-out). In kind it is cell-based, Mycobacterium tuberculosis. To be noted: for MIC: Mycobacterium tuberculosis, H37RV, 168 h, checkerboard, agent alone; for MIC / MIC, Combined: REMA read-out, 7 days.
For assay [3], the system named is M. tuberculosis H37Rv. The arrangement: method as in PMID 32750539, PMID 29900893. To be noted: previous reports; ref [30],[31]; cited from earlier work.
The subject of assay [4] is M. tuberculosis H37Rv. To be noted: 3 h, 100 µg/mL.
For assay [5], the system named is M. tuberculosis. To be noted: cited from earlier work.

What is called MIC is the lowest concentration found to suppress growth. In the case of `CC(C)C[C@H](NC(=O)[C@H](CC(C)C)NC(=O)[C@H](CCCCN)NC(=O)[C@H](CCCCN)NC(=O)[C@@H](NC(=O)[C@H](C)N)C(C)C)C(=O)N[C@@H](CCCNC(=N)N)C(=O)N[C@@H](Cc1c[nH]c2ccccc12)C(=O)N[C@@H](Cc1c[nH]c2ccccc12)C(=O)N[C@@H](CO)C(=O)N[C@@H](CCCNC(=N)N)C(=O)N[C@@H](Cc1c[nH]c2ccccc12)C(=O)N[C@@H](Cc1c[nH]c2ccccc12)C(=O)N[C@@H](CCCCN)C(=O)N[C@@H](CCCCN)C(=O)O` [AK 15-6] (H-AVKKLLRWWSRWWKK-OH; N-terminus and C-terminus assumed), the minimum inhibitory concentration (MIC) in assay [1] is reported as 37.5 µg/mL (≈ 18.1 µM).
`NNC(=O)c1ccncc1` [INH, isoniazid]: the figures for the MIC in assay [2] and in assay [3] were 0.025 µg/mL and 0.03 to 0.12 µg/mL, respectively. Moreover, the FIC in assay [2] (combination INH + D-hLF 1-11) came to 0.48. In assay [2] (combination INH + D-hLF 1-11), the “MIC, Combined” value is recorded as 0.012 µg/mL.
Take `CC(C)C[C@H](NC(=O)[C@H](CCCNC(=N)N)NC(=O)CNC(=O)CNC(=O)[C@@H](N)CCCNC(=N)N)C(=O)N[C@H]1CSSC[C@@H](C(=O)N[C@H](C(=O)NCC(=O)N[C@@H](CCCNC(=N)N)C(N)=O)C(C)C)NC(=O)[C@H](C(C)C)NC(=O)[C@@H]2CSSC[C@H](NC(=O)[C@H](Cc3ccc(O)cc3)NC1=O)C(=O)N[C@@H](CCCNC(=N)N)C(=O)N[C@@H](CCCNC(=N)N)C(=O)N[C@@H](CCCNC(=N)N)C(=O)N[C@@H](Cc1ccccc1)C(=O)N2` [PG-1]: the “percent of mycobacterial growth inhibition” value was “approximately 94.22%” in assay [4]; 96.7% in assay [5] (128 µg/mL, ref [3] Fattorini and colleagues). Besides, in assay [5] (Plate count assay, ref [3]), the MIC is listed as 128 µg/mL (≈ 59.4 µM).
With `CO[C@H]1/C=C/O[C@@]2(C)Oc3c(C)c(O)c4c(O)c(c(/C=N/N5CCN(C)CC5)c(O)c4c3C2=O)NC(=O)/C(C)=C\C=C\[C@H](C)[C@H](O)[C@@H](C)[C@@H](O)[C@@H](C)[C@H](OC(C)=O)[C@@H]1C` [RF, rifampicin], the MIC in assay [2] was 0.5 µg/mL; in assay [3] it was 0.12 to 0.5 µg/mL. The “MIC, Combined” value in assay [2] (combination RF + D-hLF 1-11) is 0.031 25 µg/mL.

The values above are taken from PMC9774897 (Antibiotics, 2022).
